Our source for the inhibition and IC50 values is paper PMC4257840 (Journal of Medicinal Chemistry, 2014).

Molecules are shown by their SMILES.

One assay concerns the target T1, Human recombinant MMP-9 (Homo sapiens, UniProt P14780).
T1 construct: host or cells: mammalian cells
Kind of assay: Protease counter-screening: MMP-9. It counts as biochemical. As for the experimental part: (§1) Appendix 7. Protease Counter -Screening
(§2) Protease counter-screeni ng was performed using the methods described below. Initial screening was conducted in duplicate using a single test substance concentration of 10 µ M .
(§3) Additional assays were conducted in replicate for selected pairin gs of test s ubstance and enz yme in order to enable the determination of IC50 values using conventional procedures.
(§4) Determination of K i was made using the Batch K i program (Biokin Ltd, Pullman, WA) to derive values from the Morrison equation: […]
MMP-9: Human recombinant MMP-9 proenz yme ex pressed in mammalian cells was activated with APMA for 60 min at 37 °C. […] The amount of MCA-P LG formed was read spectrofluorimetricall y at 340 nm/400 nm.
ADAM-17/TACE: Human recombinant ADAM-17 expressed in Sf21 insect cells was used as enz yme sour ce. […] T he amount of MCA-P LAQA formed w as read spectro fluorimetricall y at 340 nm/400 nm.
Angiotensin converting enzyme: Test compound or vehicle was pre- incubated in modified HEPES buffer pH 7.5 for 15 min at 25 °C with 31 mU/mL angiotensin converting enz yme from rabbit lung. […] The amount of substrate remaining was read spectrophotometricall y at 340 nm and used to deri ve the extent of reaction and its inhibition. […]
In general terms: The purpose of a counterscreen is to sort out artefacts and off-target activity.

For assay [1], the target named is human recombinant procathepsin K (activated) (Homo sapiens, UniProt P43235). The experiment in a line: Protease counter-screening: Cathepsin K. The class given is biochemical. As for the experimental part:
as §1, §2, §3, §4
Where [E ] is the active enz yme concentration, Kiapp is the apparent inhibition const ant, v 0 is the control velocit y in the absence of inhibitors, vb is the background velocity, v is the initial reaction velocit y in the presence of inhibitor, and I is the inhibitor concentration.Thence:
Where [S ] is the substrate concentration and KM is the Michealis constant.
Caspase 1: Activity against human recombinant caspase 1 expressed in E. coli was tested using Ac-YVAD- AMC as the substrate. […]
The amount of MCA-P LG formed was measured spectrofluorimetricall y at 340 nm/400 nm. […]
AMC formation was read at 360 nm/465 nm.
Cathepsin L2: Human recombinant cathepsin L2 expressed in NS0 cells was used as the enzyme source. […] Form ation of AMC was measured at 360 […]
The amount of AMC formed was read spectrofluorimetricall y at 360 nm/465 nm. […]

T1 sequence (P14780 107-707 limits assumed): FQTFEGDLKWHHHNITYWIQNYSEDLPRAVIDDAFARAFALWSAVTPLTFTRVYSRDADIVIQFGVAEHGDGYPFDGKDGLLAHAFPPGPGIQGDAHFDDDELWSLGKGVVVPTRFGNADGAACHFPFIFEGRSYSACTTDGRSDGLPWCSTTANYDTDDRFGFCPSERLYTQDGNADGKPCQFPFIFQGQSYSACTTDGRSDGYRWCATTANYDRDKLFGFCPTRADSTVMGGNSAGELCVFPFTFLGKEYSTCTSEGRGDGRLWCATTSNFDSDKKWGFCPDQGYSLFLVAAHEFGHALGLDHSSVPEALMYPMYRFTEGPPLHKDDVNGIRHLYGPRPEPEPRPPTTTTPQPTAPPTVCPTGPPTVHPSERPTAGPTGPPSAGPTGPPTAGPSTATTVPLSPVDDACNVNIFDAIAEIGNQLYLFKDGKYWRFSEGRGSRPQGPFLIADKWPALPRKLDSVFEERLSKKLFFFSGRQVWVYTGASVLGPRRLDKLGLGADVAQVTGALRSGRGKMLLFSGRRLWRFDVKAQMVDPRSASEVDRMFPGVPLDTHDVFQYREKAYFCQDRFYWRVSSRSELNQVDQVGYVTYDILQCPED
human recombinant procathepsin K (activated), sequence (P43235 115-329): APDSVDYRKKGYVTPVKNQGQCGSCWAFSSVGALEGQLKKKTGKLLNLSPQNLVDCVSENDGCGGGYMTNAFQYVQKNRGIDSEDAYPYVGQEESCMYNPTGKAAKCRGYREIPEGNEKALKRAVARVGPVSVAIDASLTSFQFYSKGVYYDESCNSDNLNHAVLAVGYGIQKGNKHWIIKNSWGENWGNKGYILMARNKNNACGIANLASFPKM

In the case of `CC(C)[C@H](NC(=O)[C@H](C)NC(=O)[C@@H](NC(=O)c1ccccc1)C(C)(C)C)C(=O)C(=O)NCc1ccccc1` [Compound 38, N-{(S)-1-[(S)-1-((S)-1-Benzylaminooxalyl-2-methyl-propylcarbamoyl)-ethylcarbamoyl]-2,2-dimethyl-propyl}-benzamide], at Human recombinant MMP-9, the inhibition at 10 µM was determined as 5%. The IC50 in assay [1] came out at 2.92 µM.

As usually defined, the inhibition is the relative decrease from the control value, in per cent. Broadly, the IC50 is the point on the concentration scale where inhibition reaches its midpoint.
